Data on 10 molecules can be found in US12054660B2, “Compound, composition, cured substance, optically anisotropic body, optical element, and light guide element” (FUJIFILM Corporation, priority 2021, dated 2024).

Common to all, as to type: physicochemical
A short description of data set [1]: Evaluation of solubility in methyl ethyl ketone. As to conditions: precipitation concentration in methyl ethyl ketone at room temperature (25° C.). How it is done: The solubility of each of the compounds of Examples and Comparative Examples (the compounds A-1, A-3 to A-20, and the compounds RA-1 and RA-2) in methyl ethyl ketone was evaluated. A solution in which the compound was ultrasonically dissolved or dissolved by heating was produced.

The nature of data set [2]: Evaluation of liquid crystallinity (hot stage, polarization microscope). The arrangement: key: A case of having liquid crystallinity was evaluated as A; a case of having no liquid crystallinity was evaluated as B. As to conditions: heated on a hot stage. The text has this: As a specific observation method, optical anisotropy and fluidity derived from the liquid crystal phase can be checked by carrying out an observation under a polarization microscope while heating or lowering the temperature of the compound with a hot stage or the like.
The respective compounds of Examples and Comparative Examples (the compounds A-1, A-3 to A-20, and the compounds RA-1 and RA-2) were heated on a hot stage and observed with a polarization microscope, and the phase transition temperature was measured to evaluate the presence or absence of liquid crystallinity. A case of having liquid crystallinity was evaluated as A, and a case of having no liquid crystallinity was evaluated as B. The results are shown in Table 1.

Data set [3] is described as follows: Evaluation of durability (moisture-heat resistance test) of optically anisotropic layer. The settings on record: rate of change in Re of layer (25 parts compound/75 parts L-1) after 136 hours at 100° C., 95% RH. How it is done: (§1) As shown below, the durability of the optically anisotropic layer produced using the composition containing each of the compounds A-1 and A-3 to A-20, and the compounds RA-1 and RA-2 was evaluated.
(§2) A coating composition having the following composition was prepared and applied by spin coating onto a rubbing-treated glass attached with an alignment film.
(§3) The polymerizable liquid crystal compound L-1 is a mixture obtained by mixing at a ratio of the following L-1-1/L-1-2/L-1-3=84/14/2 (in terms of mass ratio).
(§4) Re is an in-plane retardation. Rate of change in Re (%)=[100×{|(Re after test)−(Re before test)|}/(Re before test)]
(§5) Re was measured with Axoscan manufactured by Axometrics, Inc. at a wavelength of 550 nm, and the measurement temperature was set to room temperature.
The produced optically anisotropic layer was allowed to be left for 136 hours at 100° C. and a relative humidity of 95% RH, whereby a moisture-heat resistance test was carried out. The rate of change in Re before and after the durability test was evaluated, the durability in a case where the rate of change in Re was less than 10% was evaluated as A, and the durability in a case where the rate of change in Re was 10% or more was evaluated as B. The smaller the rate of change in Re, the more excellent the durability.

Data set [4] is described as follows: Measurement of Δn (refractive index anisotropy), wedge-shaped liquid crystal cell. The settings on record: 550 nm, 30° C. or lower limit temperature of nematic phase+0 to 10° C.; some extrapolated from 1/2 mixture with L-1-1. The protocol:
The Δn of each of the compounds of Examples and Comparative Examples (the compounds A-1, A-3 to A-20, and the compounds RA-1 and RA-2), which are the compounds to be measured, was measured by a method using a wedge-shaped liquid crystal cell described on page 202 in the Liquid crystal handbook (edited by the liquid crystal handbook editorial board, published by Maruzen Co., Ltd., 2000). An was defined as a measured value at a wavelength of 550 nm at 30° C. or the lower limit temperature of the nematic phase+0° C. to 10° C. In a case of a compound which is liable to crystallize or a compound having no liquid crystallinity, evaluation was carried out using a mixture thereof with the other liquid crystal compound, and Δn was estimated from the extrapolated value of the measured value thereof. The following L-1-1 was used as the other liquid crystal compound. As the above mixture, a mixture obtained by mixing at a ratio of the compound to be measured/the L-1-1=1/2 (in terms of mass ratio) was used.
A case where Δn was 0.35 or more was evaluated as A, a case where Δn was 0.32 or more and less than 0.35 was evaluated as B, a case where Δn was 0.30 or more and less than 0.32 was evaluated as C, and a case where Δn was less than 0.30 was evaluated as D. The results are shown in Table 1.

A short description of data set [5]: Evaluation of light resistance of optically anisotropic layer. The settings on record: rate of change in Re of layer (25 parts compound/75 parts L-1) after xenon irradiation 50 hours, 63° C., 50% RH, oxygen-blocking. The protocol:
as §1, §2, §3
The produced optically anisotropic layers for light resistance/durability tests were irradiated with light using a Super Xenon Weather Meter SX75 manufactured by Suga Test Instruments Co., Ltd. Using KU-1000100 manufactured by King Seisakusho Co., Ltd. as an ultraviolet ray cut filter, irradiation with 5 million 1× of light was carried out for 50 hours under the oxygen-blocking conditions to carry out a light resistance test. The temperature of the specimen to be tested (the temperature inside the test device) was set to 63° C. The relative humidity in the test device was 50% RH.
The Re of the optically anisotropic layer before and after the light resistance test was measured, the light resistance in a case where the rate of change in Re described below was less than 10% was evaluated as A, and the light resistance in a case where the rate of change in Re was 10% or more was evaluated as B. The smaller the rate of change in Re, the more excellent the light resistance.
as §4, §5

Structures are written as SMILES.

As for `C=CC(=O)OCCCCSc1ccc(C#Cc2ccc(NC(=O)c3ccc(SCCCCOC(=O)C=C)cc3)c(C(F)(F)F)c2)cc1` [RA-2, reference compound], the Solubility result in data set [1] was “B (the solubility in a case where the precipitation concentration was less than 10% by mass was evaluated as B)”. Besides, the Liquid crystallinity entry in data set [2] was “A”. In addition, the Durability result in data set [3] is “A (the durability in a case where the rate of change in Re was less than 10% was evaluated as A)”. Besides, the Δn result in data set [4] is “C (a case where Δn was 0.30 or more and less than 0.32 was evaluated as C)”. Besides, the Light resistance result in data set [5] was “B (the light resistance in a case where the rate of change in Re was 10% or more was evaluated as B)”.

In the case of `C=CC(=O)OCCSc1ccc(C#Cc2ccc(OCCOc3ccc(C#Cc4ccc(SCCOC(=O)C=C)cc4)cc3C(=O)OC)c(C(=O)OC)c2)cc1` [Compound A-18], the Solubility entry in data set [1] is listed as “A (the solubility in a case where the precipitation concentration was 10% by mass or more was evaluated as A)”. Besides, the Liquid crystallinity result in data set [2] was “A”. The Durability entry in data set [3] is on record as “A (the durability in a case where the rate of change in Re was less than 10% was evaluated as A)”. Further, the Δn entry in data set [4] is “A (A case where Δn was 0.35 or more was evaluated as A)”. Also, the Light resistance result in data set [5] was “A (the light resistance in a case where the rate of change in Re described below was less than 10% was evaluated as A)”.

Regarding `C=CC(=O)OCCSc1ccc(C#Cc2ccc(COc3ccc(C#Cc4ccc(SCCOC(=O)C=C)cc4)cc3C(=O)OC)cc2)cc1` [Compound A-3], the Solubility result in data set [1] is on record as “A (the solubility in a case where the precipitation concentration was 10% by mass or more was evaluated as A)”. In data set [2], the Liquid crystallinity entry was “A”. For the same molecule, in data set [3], the Durability result is “A (the durability in a case where the rate of change in Re was less than 10% was evaluated as A)”. For the same molecule, the Δn result in data set [4] is given as “A (A case where Δn was 0.35 or more was evaluated as A)”. For the same molecule, the Light resistance entry in data set [5] was “A (the light resistance in a case where the rate of change in Re described below was less than 10% was evaluated as A)”.

Take `C=CC(=O)OCCSc1ccc(C#Cc2ccc(C(=O)Oc3ccc(C#Cc4ccc(SCCOC(=O)C=C)cc4)cc3C(=O)OC)cc2)cc1` [Compound A-4]: in data set [1], the Solubility entry is “A (the solubility in a case where the precipitation concentration was 10% by mass or more was evaluated as A)”. In addition, the Liquid crystallinity result in data set [2] is on record as “A”. Moreover, the Durability result in data set [3] was “A (the durability in a case where the rate of change in Re was less than 10% was evaluated as A)”. Moreover, the Δn result in data set [4] is given as “A (A case where Δn was 0.35 or more was evaluated as A)”. Further, in data set [5], the Light resistance entry is given as “B (the light resistance in a case where the rate of change in Re was 10% or more was evaluated as B)”.

For `CC(=O)OCCSc1ccc(C#Cc2ccc(COc3ccc(C#Cc4ccc(CCOC(C)=O)cc4)cc3)cc2C)cc1` [Compound A-13], the Solubility entry in data set [1] was “A (the solubility in a case where the precipitation concentration was 10% by mass or more was evaluated as A)”. For the same molecule, in data set [2], the Liquid crystallinity entry is on record as “A”. In data set [3], the Durability result is on record as “B (the durability in a case where the rate of change in Re was 10% or more was evaluated as B)”. Moreover, in data set [4], the Δn entry is “B (a case where Δn was 0.32 or more and less than 0.35 was evaluated as B)”. Moreover, the Light resistance entry in data set [5] is listed as “A (the light resistance in a case where the rate of change in Re described below was less than 10% was evaluated as A)”.

On to `CC(=O)OCCSc1ccc(C#Cc2ccc(OCc3ccc(C#Cc4ccc(COc5ccc(C#Cc6ccc(SCCOC(C)=O)cc6)cc5C)cc4)cc3)c(C)c2)cc1` [Compound A-15], for which the Solubility entry in data set [1] is listed as “B (the solubility in a case where the precipitation concentration was less than 10% by mass was evaluated as B)”. Besides, in data set [2], the Liquid crystallinity result was “A”. Moreover, the Durability entry in data set [3] is recorded as “B (the durability in a case where the rate of change in Re was 10% or more was evaluated as B)”. Moreover, the Δn entry in data set [4] was “A (A case where Δn was 0.35 or more was evaluated as A)”. Further, the Light resistance entry in data set [5] was “A (the light resistance in a case where the rate of change in Re described below was less than 10% was evaluated as A)”.

As for `C=CC(=O)OCCSc1ccc(C#Cc2ccc(SCc3ccc(C#Cc4ccc(SCCOC(=O)C=C)cc4)c(OC)c3)cc2)cc1` [Compound A-5], the Solubility result in data set [1] is reported as “A (the solubility in a case where the precipitation concentration was 10% by mass or more was evaluated as A)”. Besides, the Liquid crystallinity result in data set [2] is recorded as “B”. Besides, the Durability result in data set [3] was “A (the durability in a case where the rate of change in Re was less than 10% was evaluated as A)”. Moreover, the Δn entry in data set [4] is on record as “A (A case where Δn was 0.35 or more was evaluated as A)”. Besides, in data set [5], the Light resistance result is reported as “A (the light resistance in a case where the rate of change in Re described below was less than 10% was evaluated as A)”.

Regarding `C=CC(=O)OCCOc1ccc(C#Cc2ccc(SCCSc3ccc(C#Cc4ccc(OCCOC(=O)C=C)c(C)c4)cc3)cc2)cc1C` [Compound A-17], in data set [1], the Solubility entry is given as “A (the solubility in a case where the precipitation concentration was 10% by mass or more was evaluated as A)”. For the same molecule, the Liquid crystallinity result in data set [2] is “B”. Also, the Durability result in data set [3] was “A (the durability in a case where the rate of change in Re was less than 10% was evaluated as A)”. Moreover, in data set [4], the Δn entry was “A (A case where Δn was 0.35 or more was evaluated as A)”. For the same molecule, the Light resistance entry in data set [5] is given as “A (the light resistance in a case where the rate of change in Re described below was less than 10% was evaluated as A)”.

Turning to `C=CC(=O)OCCSc1ccc(C#Cc2ccc(COc3ccc(OCc4ccc(C#Cc5ccc(SCCOC(=O)C=C)cc5)cc4)c(C(=O)OC)c3)cc2)cc1` [Compound A-14], the Solubility result in data set [1] is “B (the solubility in a case where the precipitation concentration was less than 10% by mass was evaluated as B)”. For the same molecule, the Liquid crystallinity result in data set [2] is recorded as “A”. For the same molecule, in data set [3], the Durability entry is on record as “A (the durability in a case where the rate of change in Re was less than 10% was evaluated as A)”. Further, the Δn result in data set [4] is “A (A case where Δn was 0.35 or more was evaluated as A)”. For the same molecule, the Light resistance entry in data set [5] is listed as “A (the light resistance in a case where the rate of change in Re described below was less than 10% was evaluated as A)”.

Consider `CC(=O)OCCCCCCCCCCOc1ccc(C#Cc2ccc(OC(=O)c3ccc(C#Cc4ccc(OCCCCCCCCCCOC(C)=O)c(F)c4)cc3)cc2)cc1F` [RA-1, reference compound], for which the Solubility result in data set [1] was “B (the solubility in a case where the precipitation concentration was less than 10% by mass was evaluated as B)”. Besides, the Liquid crystallinity result in data set [2] is given as “A”. In addition, in data set [3], the Durability result is listed as “A (the durability in a case where the rate of change in Re was less than 10% was evaluated as A)”. In addition, the Δn entry in data set [4] is “D (a case where Δn was less than 0.30 was evaluated as D)”. Moreover, in data set [5], the Light resistance result was “B (the light resistance in a case where the rate of change in Re was 10% or more was evaluated as B)”.
